{
  "source": "paper PMC11432330",
  "about": "“Novel Drug-like HsrA Inhibitors Exhibit Potent Narrow-Spectrum Antimicrobial Activities against Helicobacter pylori” (International Journal of Molecular Sciences, 2024)",
  "system": "H. pylori 26695",
  "experiment": "In vivo inhibition of HsrA: RNA-Seq transcriptomic analysis of exposed cells",
  "type": "cell-based, Helicobacter pylori",
  "conditions": "for log2 Fold Change: exposed to lethal concentrations vs control",
  "experimental": "Bacterial growth from three blood agar plates of H. pylori ATCC 700392 (aka 26695) incubated for 48 h at 37 °C under microaerobic conditions was aseptically resuspended in BHI + FBS and adjusted to 10^7 CFU/mL. BHI broth cultures were incubated microaerobically at 37 °C for 24 h. […] At this time, bacterial growth was stopped by adding 1.5 mL ice-cold RNA stop solution (95% absolute ethanol, 5% acid-buffered phenol) and subsequently incubated on ice. Control samples were exposed to the same amount of DMSO instead of the inhibitor. Helicobacter cells from all samples were harvested by centrifugation (4000 rpm at 4 °C for 10 min), then the pellets were quickly frozen by immersion in liquid nitrogen and stored at −80 °C.\nRNA-Seq analysis was performed by GENEWIZ (Azenta Life Sciences, Leipzig, Germany). Frozen cell pellets from two biological replicates of each treatment condition were properly submitted to GENEWIZ in dry ice. RNA-Seq libraries were prepared according to standard protocols via rRNA depletion, RNA fragmentation and random priming, reverse transcription, 5’-phosphorylation and dA-tailing of cDNAs, adaptor ligation, and PCR enrichment. Once the quality of each library was confirmed, they were sequenced on an Illumina NovaSeq 6000 (Illumina, San Diego, CA, USA) with 150-bp paired-ends. Raw sequence reads were filtered to remove possible adapter sequences and nucleotides with poor quality using Trimmomatic v.0.36 [105]. The trimmed reads were subsequently mapped to the H. pylori strain 26695 reference genome NC_000915.1 available on NCBI, by using the Bowtie2 aligner v.2.2.6 [106]. Unique gene hit counts were calculated by using featureCounts from the Subread package v.1.5.2. Only unique reads that fell within the gene regions were counted. Using DESeq2 [108], a comparison of the gene expression between the control and treated groups of samples was performed. The Wald test was used to generate p-values and log2 fold changes. Genes with an adjusted p-value < 0.05 and absolute log2 fold change >1 were considered as differentially expressed genes (DEGs) for each comparison. The RNA-Seq data generated in this study have been deposited in ArrayExpress with the accession number E-MTAB-14255.",
  "data": [
    {"smiles": "NC(=NOC(=O)Nc1ccc(Cl)cc1)c1csc([N+](=O)[O-])c1", "note": "[Ligand V, N′-{[(4-chloroanilino)carbonyl]}oxy-5-nitrothiophene-3-carboximidamide]", "values": [
      {"measurement": "log2 Fold Change", "setting": "gene HP0450", "result": -0.486},
      {"measurement": "log2 Fold Change", "setting": "gene HP0462", "result": -0.540},
      {"measurement": "log2 Fold Change HP0464", "setting": "gene HP0464, lethal concentrations of V vs control", "result": 0.429},
      {"measurement": "log2 Fold Change", "setting": "gene HP0465", "result": -0.541},
      {"measurement": "log2 Fold Change", "setting": "gene HP0469", "result": 1.295},
      {"measurement": "log2 Fold Change", "setting": "gene HP0472", "result": 1.301},
      {"measurement": "log2 Fold Change HP0474", "setting": "gene HP0474, lethal concentrations of V vs control", "result": 0.428},
      {"measurement": "log2 Fold Change HP0485", "setting": "gene HP0485, lethal concentrations of V vs control", "result": 0.392},
      {"measurement": "log2 Fold Change HP0513", "setting": "gene HP0513, lethal concentrations of V vs control", "result": 0.406},
      {"measurement": "log2 Fold Change HP0515", "setting": "gene HP0515, lethal concentrations of V vs control", "result": 0.192},
      {"measurement": "log2 Fold Change", "setting": "gene HP0518", "result": -0.587},
      {"measurement": "log2 Fold Change HP0536", "setting": "gene HP0536, lethal concentrations of V vs control", "result": 0.397},
      {"measurement": "log2 Fold Change", "setting": "gene HP0537", "result": -0.567},
      {"measurement": "log2 Fold Change HP0540", "setting": "gene HP0540, lethal concentrations of V vs control", "result": 0.190},
      {"measurement": "log2 Fold Change HP0546", "setting": "gene HP0546, lethal concentrations of V vs control", "result": 0.161},
      {"measurement": "log2 Fold Change", "setting": "gene HP0555", "result": -0.497},
      {"measurement": "log2 Fold Change HP0563", "setting": "gene HP0563, lethal concentrations of V vs control", "result": 0.320},
      {"measurement": "log2 Fold Change", "setting": "gene HP0568", "result": -0.470},
      {"measurement": "log2 Fold Change HP0586", "setting": "gene HP0586, lethal concentrations of V vs control", "result": 0.156},
      {"measurement": "log2 Fold Change HP0587", "setting": "gene HP0587, lethal concentrations of V vs control", "result": 0.303},
      {"measurement": "log2 Fold Change HP0602", "setting": "gene HP0602, lethal concentrations of V vs control", "result": 0.450},
      {"measurement": "log2 Fold Change", "setting": "gene HP0608", "result": -0.470},
      {"measurement": "log2 Fold Change", "setting": "gene HP0613", "result": 1.327},
      {"measurement": "log2 Fold Change HP0639", "setting": "gene HP0639, lethal concentrations of V vs control", "result": 0.172},
      {"measurement": "log2 Fold Change HP0640", "setting": "gene HP0640, lethal concentrations of V vs control", "result": 0.392},
      {"measurement": "log2 Fold Change", "setting": "gene HP0641", "result": -0.474},
      {"measurement": "log2 Fold Change", "setting": "gene HP0642", "result": -0.561},
      {"measurement": "log2 Fold Change", "setting": "gene HP0648", "result": -0.611},
      {"measurement": "log2 Fold Change HP0650", "setting": "gene HP0650, lethal concentrations of V vs control", "result": 0.145},
      {"measurement": "log2 Fold Change HP0652", "setting": "gene HP0652, lethal concentrations of V vs control", "result": 0.477},
      {"measurement": "log2 Fold Change HP0660", "setting": "gene HP0660, lethal concentrations of V vs control", "result": 0.172},
      {"measurement": "log2 Fold Change HP0670", "setting": "gene HP0670, lethal concentrations of V vs control", "result": 0.376},
      {"measurement": "log2 Fold Change HP0680", "setting": "gene HP0680, lethal concentrations of V vs control", "result": 0.219},
      {"measurement": "log2 Fold Change", "setting": "gene HP0692", "result": 1.329},
      {"measurement": "log2 Fold Change HP0699", "setting": "gene HP0699, lethal concentrations of V vs control", "result": 0.318},
      {"measurement": "log2 Fold Change", "setting": "gene HP0702", "result": -0.528},
      {"measurement": "log2 Fold Change HP0709", "setting": "gene HP0709, lethal concentrations of V vs control", "result": 0.245},
      {"measurement": "log2 Fold Change", "setting": "gene HP0734", "result": -0.529},
      {"measurement": "log2 Fold Change", "setting": "gene HP0737", "result": -0.509},
      {"measurement": "log2 Fold Change", "setting": "gene HP0741", "result": -0.519},
      {"measurement": "log2 Fold Change HP0742", "setting": "gene HP0742, lethal concentrations of V vs control", "result": 0.440},
      {"measurement": "log2 Fold Change HP0748", "setting": "gene HP0748, lethal concentrations of V vs control", "result": 0.146},
      {"measurement": "log2 Fold Change HP0750", "setting": "gene HP0750, lethal concentrations of V vs control", "result": 0.398},
      {"measurement": "log2 Fold Change", "setting": "gene HP0755", "result": -0.518},
      {"measurement": "log2 Fold Change", "setting": "gene HP0759", "result": 1.350},
      {"measurement": "log2 Fold Change HP0763", "setting": "gene HP0763, lethal concentrations of V vs control", "result": 0.150},
      {"measurement": "log2 Fold Change", "setting": "gene HP0765", "result": -0.541},
      {"measurement": "log2 Fold Change", "setting": "gene HP0772", "result": -0.471},
      {"measurement": "log2 Fold Change HP0773", "setting": "gene HP0773, lethal concentrations of V vs control", "result": 0.301},
      {"measurement": "log2 Fold Change HP0782", "setting": "gene HP0782, lethal concentrations of V vs control", "result": 0.353},
      {"measurement": "log2 Fold Change HP0796", "setting": "gene HP0796, lethal concentrations of V vs control", "result": 0.282},
      {"measurement": "log2 Fold Change HP0803", "setting": "gene HP0803, lethal concentrations of V vs control", "result": 0.182},
      {"measurement": "log2 Fold Change HP0805", "setting": "gene HP0805, lethal concentrations of V vs control", "result": 0.416},
      {"measurement": "log2 Fold Change", "setting": "gene HP0810", "result": -0.532},
      {"measurement": "log2 Fold Change", "setting": "gene HP0819", "result": -0.529},
      {"measurement": "log2 Fold Change HP0820", "setting": "gene HP0820, lethal concentrations of V vs control", "result": 0.198},
      {"measurement": "log2 Fold Change HP0823", "setting": "gene HP0823, lethal concentrations of V vs control", "result": 0.406},
      {"measurement": "log2 Fold Change HP0833", "setting": "gene HP0833, lethal concentrations of V vs control", "result": 0.436},
      {"measurement": "log2 Fold Change HP0836", "setting": "gene HP0836, lethal concentrations of V vs control", "result": 0.282},
      {"measurement": "log2 Fold Change", "setting": "gene HP0840", "result": -0.593},
      {"measurement": "log2 Fold Change HP0858", "setting": "gene HP0858, lethal concentrations of V vs control", "result": 0.348},
      {"measurement": "log2 Fold Change", "setting": "gene HP0861", "result": -0.479},
      {"measurement": "log2 Fold Change HP0864", "setting": "gene HP0864, lethal concentrations of V vs control", "result": 0.392},
      {"measurement": "log2 Fold Change HP0872", "setting": "gene HP0872, lethal concentrations of V vs control", "result": 0.335},
      {"measurement": "log2 Fold Change", "setting": "gene HP0885", "result": -0.551},
      {"measurement": "log2 Fold Change HP0890", "setting": "gene HP0890, lethal concentrations of V vs control", "result": 0.409},
      {"measurement": "log2 Fold Change HP0897", "setting": "gene HP0897, lethal concentrations of V vs control", "result": 0.220},
      {"measurement": "log2 Fold Change HP0898", "setting": "gene HP0898, lethal concentrations of V vs control", "result": 0.196},
      {"measurement": "log2 Fold Change HP0900", "setting": "gene HP0900, lethal concentrations of V vs control", "result": 0.416},
      {"measurement": "log2 Fold Change HP0909", "setting": "gene HP0909, lethal concentrations of V vs control", "result": 0.281},
      {"measurement": "log2 Fold Change", "setting": "gene HP0916", "result": -0.568},
      {"measurement": "log2 Fold Change", "setting": "gene HP0935", "result": -0.494},
      {"measurement": "log2 Fold Change", "setting": "gene HP0936", "result": -0.576},
      {"measurement": "log2 Fold Change", "setting": "gene HP0939", "result": -0.568},
      {"measurement": "log2 Fold Change HP0946", "setting": "gene HP0946, lethal concentrations of V vs control", "result": 0.226},
      {"measurement": "log2 Fold Change HP0948", "setting": "gene HP0948, lethal concentrations of V vs control", "result": 0.237},
      {"measurement": "log2 Fold Change HP0949", "setting": "gene HP0949, lethal concentrations of V vs control", "result": 0.337},
      {"measurement": "log2 Fold Change", "setting": "gene HP0953", "result": -0.500},
      {"measurement": "log2 Fold Change HP0955", "setting": "gene HP0955, lethal concentrations of V vs control", "result": 0.173},
      {"measurement": "log2 Fold Change HP0963", "setting": "gene HP0963, lethal concentrations of V vs control", "result": 0.462},
      {"measurement": "log2 Fold Change HP0976", "setting": "gene HP0976, lethal concentrations of V vs control", "result": 0.322}
    ]}
  ]
}
